Data published in patent US20260041677A1, “COMPOSITIONS AND METHODS FOR TREATING ADENOID CYSTIC CARCINOMA” (ELEVAR THERAPEUTICS, INC., priority 2022, published 2026).

Key:
[1] = system: recurrent or metastatic (R/M) adenoid cystic carcinoma (ACC); assay: Phase 2 study of rivoceranib in R/M ACC: response, PFS, TTP per CHOI response criteria by BIRC; assay type: in vivo, human; conditions: for Complete Response / DoR 25th percentile / DoR 75th percentile / DoR Median / Partial Response / Progressive Disease / Stable Disease / DCR (disease control rate): BIRC
Text: (§1) Objectives: Primary objectives were to evaluate safety & tolerability, efficacy by objective response rate (ORR), best overall response (BOR), time to response, duration of response, disease control rate, and duration of disease control. Secondary objectives were to evaluate efficacy as measured by overall survival, progression-free survival and event-free survival. The primary efficacy endpoint was the ORR, defined as the proportion of patients who achieved confirmed complete response (CR) or partial response (PR) per Response Evaluation Criteria in Solid Tumors (RECIST) Version 1.1 (V1.1). The secondary efficacy endpoints were duration of response (DoR) assessed by the investigator and a blinded independent review committee (BIRC), progression-free survival (PFS) assessed at 6 months, 12 months, and 2 years by investigator and BIRC, Time to Progression (TTP) assessed by investigator and BIRC, and overall survival (OS) assessed at 1 and 2 years. Exploratory efficacy endpoints include ORR per CHOI response criteria (based on the journal article, Choi et al., Correlation of computed tomography and positron emission tomography in patients with metastatic gastrointestinal stromal tumor treated at a single institution with imatinib mesylate: proposal of new computed tomography response criteria. J Clin Oncol. 2007; 25(13): 1753-1759) by a blinded independent review […] (BIRC) and disease control rate (DCR) per RECIST V1.1 by Investigator and BIRC. Except for CHOI response criteria, all response endpoints were assessed per RECIST V1.1 by Investigator and BIRC.
Endpoint of Response per CHOI response Criteria: CHOI response criteria assesses response based on change in tumor density as well as change in tumor size and have been most often used to assess response to treatment with tyrosine kinase inhibitors such as imatinib in gastrointestinal stromal tumors (GIST) where RECIST criteria underestimate response. Evaluation of response per CHOI response criteria by BIRC was added to the protocol for exploratory analysis because Investigators observed decreases in tumor density on treatment with rivoceranib without changes in tumor lesion diameters. Changes in tumor density had not been reported with other treatments investigated for R/M ACC.
Objective response rate (ORR), duration of response (DOR) and disease control rate (DCR) in the efficacy evaluable population per CHOI response criteria (using the same data set as used for analyses per RECIST V1.1): Assessment of response per CHOI response criteria required a subject have contrast-enhanced CT scan as the imaging modality for assessment of tumor density at baseline and post-baseline time points. Therefore, fewer subjects were efficacy evaluable per CHOI response criteria (N=60) than per RECIST V1.1 criteria (N=73). […] This is >4-fold higher than the ORR of 9.6% per RECIST V1.1 reported by BIRC. […] Median DOR per CHOI response criteria was 14.8 months, which was two-fold higher than that reported per RECIST V1.1-7.2 months reported by BIRC.

[2] = Phase 2 study of rivoceranib in R/M ACC: safety, adverse events, dose modifications; assay type: in vivo, human
Text: Overall design: An ongoing Phase 2, multicenter, open-label, single-arm study was designed to evaluate the efficacy and safety of rivoceranib in patients with recurrent or metastatic (R/M) adenoid cystic carcinoma (ACC) of all anatomic sites of origin. The study was composed of an initial screening phase (up to 28 days), a treatment phase, and a follow-up phase.
as §1
Dose determination: Enrolled patients initiated treatment with rivoceranib 700 mg daily (QD). Up to 3 levels of dose reduction for toxicity were permitted: 500 mg QD, 300 mg QD and 200 mg QD. Patients received treatment until disease progression, unacceptable toxicity, death or withdrawal of consent to treatment. Patients deriving benefit were permitted to continue treatment with rivoceranib beyond disease progression. After discontinuation of study treatment, patients were to be followed for survival (and initiation of new anticancer therapy) for 24 months. Patients were dosed with rivoceranib 700 mg orally daily (QD) in 28-day cycles. Treatment with rivoceranib was continued until disease progression, unacceptable toxicity, death, or withdrawal of consent.
The median duration of treatment was 31.07 weeks (range: 0.6 to 103.0). The median time-averaged daily dose was 397.6 mg/day, which was […] of initial daily dose of 700 mg/day. Overall, 85% of patients required 1 or more dose modifications (reduction or interruption) due to an adverse event (AE).
Safety Summary: Rivoceranib was generally well-tolerated with the toxicity profile as expected based on other studies of rivoceranib in patients with solid tumors, and consistent with the class effect of angiogenesis inhibitors. […] Four patients experienced a fatal adverse event. These events consisted of epistaxis in two patients and acute respiratory failure in two patients. […] The median time to each of these dose reductions was 4.00, 7.71 and 16.00 weeks, respectively. The median duration of treatment was 31.1 weeks (range, 0.6-103.0). The median actual dose intensity was 421.0 mg/day. The relative dose intensity was 60.1%. Overall, 68 patients required one or more dose modifications (reduction or interruption) due to an adverse event. The median time to first dose reduction was 4.1 weeks (range, 1-40).

[3] = CHOI criteria, Total N = 60, 700 mg QD start
[4] = CHOI criteria, VEGFRi-naïve N = 48, 700 mg QD start
[5] = CHOI criteria, VEGFRi-treated N = 12, 700 mg QD start
[6] = CHOI criteria, efficacy evaluable population, 700 mg QD start

N#CC1(c2ccc(NC(=O)c3cccnc3NCc3ccncc3)cc2)CCCC1 [Rivoceranib, N-[4-(1-cyanocyclopentyl)phenyl]-2-{[(pyridin-4-yl)methyl]amino}pyridine-3-carboxamide]
ORR per CHOI criteria relative to ORR per RECIST V1.1 by BIRC ([1]; 51.7% vs 9.6%): > 4 fold | Complete Response [1, 3]: 0% | DoR 25th percentile [1, 3]: 7.2 months | DoR 75th percentile [1, 3]: 20.2 months | DoR Median [1, 3]: 14.8 months | Partial Response [1, 3]: (51.7) % | Progressive Disease [1, 3]: (6.7) % | Stable Disease [1, 3]: (41.7) % | Complete Response [1, 4]: 0% | DCR (disease control rate) [1, 4]: (60.4) % | DoR 25th percentile [1, 4]: 7.2 months | DoR 75th percentile [1, 4]: 20.2 months | DoR Median [1, 4]: 14.8 months | Partial Response [1, 4]: (52.1) % | Progressive Disease [1, 4]: (6.3) % | Stable Disease [1, 4]: (41.7) % | Complete Response [1, 5]: 0% | DCR (disease control rate) [1, 5]: (66.7) % | DoR 25th percentile [1, 5]: 12.2 months | DoR Median [1, 5]: 12.2 months | Partial Response [1, 5]: (50.0) % | Progressive Disease [1, 5]: (8.3) % | Stable Disease [1, 5]: (41.7) % | Median TTP [1, 6]: 14.4 months | estimated PFS rate at 6 months [1, 6]: 80.4% | estimated PFS rate at 9 months [1, 6]: 62.6% | estimated PFS rate at 12 months [1, 6]: 53.8% | estimated TTP rate at 6 months [1, 6]: 82% | estimated TTP rate at 9 months [1, 6]: 67.7% | estimated TTP rate at 12 months [1, 6]: 58.3% | median PFS [1, 6]: 13.8 months | fatal adverse event: acute respiratory failure ([2]; N = 80, 700 mg QD start): two | fatal adverse event: epistaxis ([2]; N = 80, 700 mg QD start): two | patients who experienced a fatal adverse event ([2]; N = 80, 700 mg QD start): Four | Median time to dose reduction to 300 mg QD ([2]; human, in vivo): 7.71 weeks | Median time to dose reduction to 500 mg QD ([2]; human, in vivo): 4.00 weeks | Number of Subjects with Dose Interruption (n, %) ([2]; human, in vivo): (83.8) % | Number of Subjects with Dose Modification (n, %) ([2]; human, in vivo): (88.8) % | Treatment interruptions due to adverse events, patients ([2]; human, in vivo): 86.3% | Treatment reductions due to adverse events, patients ([2]; human, in vivo): 48.8% | median time to first dose reduction ([2]; human, in vivo): 4.1 weeks | patients dose reduced from 700 mg QD to 500 mg QD ([2]; human, in vivo): 80.0% | patients dose reduced to 200 mg QD ([2]; human, in vivo): 32.5% | patients dose reduced to 300 mg QD ([2]; human, in vivo): 51.3%
